The values that follow come from patent US5747482A, “Methods and compositions to inhibit keratinocyte proliferation” (priority 1996, dated 1998).

The test system of test [1] is Keratinocytes. Put plainly: Comparison of keratinocyte growth inhibition by gallium maltol, gallium nitrate and maltol, Example 3. The settings on record: 1×10^-4 M, 9 days, high Ca^+2 medium; FIG. 3. The class given is cell-based, human. The text has this:
(§1) Adult human keratinocytes from pooled donor skin were obtained from commercial sources (Cascade Biologics, Portland, Oreg., U.S.A.) and placed in 150 cm^2 bottom area culture flasks using culture medium 154 supplemented with HKGS (about 1%). At 80% confluency, cells were harvested with trypsin and cryopreserved until required.
At the start of the experiments, the required number of vials of keratinocytes was thawed, and the keratinocytes were placed in culture in 24 well plates at about 2,500 cells/cm^2 using the same culture medium as described above. After 24 hours (to allow attachment), the medium was changed to fresh 154 supplemented with HKGS (about 1%) and gallium maltol. Specifically, the fresh medium was prepared by addition of a sufficient amount of a stock solution to provide for six different compositions having a final gallium concentration of 10^-4 M, 10^-5 M, 10^-6 M, 10^-8 M, 10^-10 M, and 10^-12 M. The stock solution was prepared by adding 22.25 mg of gallium maltol to 50 mL of 154 medium and then passing the solution through a 0.2 μm filter and storing at 4° C.
When control cells were about 40% confluent (generally at 4-5 days in culture, all media were removed by aspiration, keratinocyte growth was assayed by crystal violet staining and conversion to cell numbers as described by Wilkinson, et al.^11. Specifically, cell layers rinsed in PBS, which was also aspirated, and 4 drops of crystal violet solution added to each well. The crystal violet solution was prepared by dissolving crystal violet (Fisher Scientific) in PBS:formaldehyde:ethanol (67:3:30%) to give a 0.5 w/v solution. A blank 24-well plate was treated similarly.
Keratinocytes were cultured in 24-well plates for 9 days in the manner described above in Example 2. […]
The cells were then cultured and subsequently evaluated for inhibition of keratinocyte proliferation in the manner described above.

The test system of test [2] is Keratinocytes. Put plainly: Effect on cell differentiation and cell number, gallium maltol added 24 hours after seeding, Example 4. The settings on record: 7 days, high calcium. The class given is cell-based, human. As to the method: as §1
Culture flasks (75 cm^2 bottom area) were seeded with keratinocytes at about 2,500 cells per cm^2 as before. After 24 hours, the medium in three (3) flasks were changed to media (154) with the calcium content increased from the normal 0.2 mM to 1.0 mM ("high calcium") plus gallium maltol (GaM) at the following concentrations: 1×10^-5 M, 5×10^-5 M, and 1×10^-4 M. The culture was continued for 7 days when cells were about 75% confluent in the controls (no GaM). Media supplemented as above were changed every 2 days. Finally, media were aspirated and cells rinsed with PBS before exposure to trypsin (0.025%)/EDTA (0.01%). When dislodged, they were collected in centrifuge tubes and the flasks rinsed with PBS:trypsin neutralizing solution (Clonetics, San Diego, Calif., U.S.A.; 1:1 v/v) and added to the cell suspension. The total volume of suspensions was approximately 8 to 10 mL. Aliquots of these suspensions were counted on the hemocytometer in terms of:
(1) small, light or dark keratinocytes, referred to as "proliferating";
(2) larger, squamous keratinocytes, with intracellular structural elements; and
(3) clear squamous cells without structural elements.
After counting, each suspension was centrifuged, the supernatant discarded, and the cell pellet resuspended in 0.5 to 1.0 mL of 1% SDS:2.5 mM DTT. After 15 minutes at 37° C., aliquots of these suspensions were counted for insoluble cornified envelops. The volumes were noted.

Consider `Cc1occc(=O)c1[O-].Cc1occc(=O)c1[O-].Cc1occc(=O)c1[O-].[Ga+3]` [gallium maltol, neutral 3:1 gallium complex of maltol], for which the “inhibition of keratinocyte proliferation” value with Keratinocytes [1] was “about 94%”. In addition, in the test on Keratinocytes [2] (1×10^-4 M), the anti-proliferative effect result was “so great that the number of cells was too small for accurate counting”. For the same compound, the “number of proliferative, squamous and cornified cells vs control” value with Keratinocytes [2] (1×10^-5 M) is “for all intents and purposes, unchanged compared to control”. Also, the “increase in the number of cornified envelopes vs control” value in the test with Keratinocytes [2] (5×10^-5 M) was “tenfold”. Besides, in the test on Keratinocytes [2] (5×10^-5 M, vs control, 50 µM), the “decrease in total number of cells” value is listed as “about 90%”. Moreover, in the test with Keratinocytes [2] (5×10^-5 M, FIG. 4), the “number of squamous cells vs control” value was “increase in the number of squamous cells” and the “proportion of proliferative cells vs control” value was “moderate decrease in the proportion of proliferative cells”. In the test with Keratinocytes [2] (10^-5 M, control 0.26 ± 0.01%), the “CELL NUMBER, cornified” value was 0.39 ± 0.17%. Moreover, the “CELL NUMBER, clear squamous” value in the test with Keratinocytes [2] (10^-5 M, control 1.8 ± 0.9%) is reported as 2.9 ± 0.15%. Besides, in the test with Keratinocytes [2] (10^-5 M, control 12.7 ± 2.7%), the “CELL NUMBER, squamous” value amounted to 13.5 ± 0.65%. For the same compound, the “CELL NUMBER, proliferative” value in the test on Keratinocytes [2] (10^-5 M, control 85.3 ± 2.7%) amounted to 83.6 ± 0.64%. In the test on Keratinocytes [2], the “concentration at which inhibition of keratinocyte proliferation is achieved” value is “greater than 1×10^-5 M” and the “concentration enhancing cell differentiation of keratinocytes” value is “greater than 1×10^-5 M”.
